Measurements published in patent publication US7547706B2, “1H-pyrimido[4,5-b]indole derivatives, their preparation and therapeutic use” (Sanofi-Aventis, priority 2005, dated 2009).
Counter-ions that a name gives are not always drawn. Marks after values point to notes of the source that are not given here.

test system: not given; experiment: not given; details: not given

Row | SMILES | melting point [°C]
1 | Cc1cc(-c2nc(C(=O)N(C)C)c3c4ccc(Cl)cc4n(C)c3n2)cnc1C.Cl | 285 to 289
2 | CN(C)C(=O)c1nc(-c2cnc3c(c2)CCCC3)nc2c1c1ccc(Cl)cc1n2C.Cl | 289 to 291
3 | Cc1cc(-c2nc(C(=O)N(C)C)c3c4ccc(Cl)cc4n(C)c3n2)cc(C)n1.Cl | 288 to 292
4 | CC(C)Cn1c2cc(Cl)ccc2c2c(C(=O)N(C)C)nc(-c3ccncc3)nc21 (as salt: HCl) [Compound 31, 7-chloro-9-isobutyl-N,N-dimethyl-2-pyridin-4-yl-9H-pyrimido[4,5-b]indole-4-carboxamide] | 230 to 236
5 | CN(C)Cc1ccc(-c2nc(C(=O)N(C)C)c3c4ccc(Cl)cc4n(C)c3n2)cn1 (as salt: HCl) [Compound 47, 7-chloro-2-{6-[(dimethylamino)methyl]pyridin-3-yl}-N,N,9-trimethyl-9H-pyrimido[4,5-b]indole-4-carboxamide] | 240 to 242
6 | CN(C)C(=O)c1nc(-c2ccccc2)nc2c1c1ccccc1n2C [Compound 1, N,N,9-trimethyl-2-phenyl-9H-pyrimido[4,5-b]indole-4-carboxamide] | 193 to 195
7 | CN(C)C(=O)c1nc(-c2ccccc2)nc2c1c1ccc(F)cc1n2C [Compound 3, 7-fluoro-N,N,9-trimethyl-2-phenyl-9H-pyrimido[4,5-b]indole-4-carboxamide] | 229 to 231
8 | CN(C)C(=O)c1nc(-c2ccccc2)nc2c1c1cc(Cl)ccc1n2C [Compound 4, 6-chloro-N,N,9-trimethyl-2-phenyl-9H-pyrimido[4,5-b]indole-4-carboxamide] | 222 to 224
9 | CN(C)C(=O)c1nc(-c2ccccc2)nc2[nH]c3cc(Cl)ccc3c12 [Compound 5, 7-chloro-N,N-dimethyl-2-phenyl-9H-pyrimido[4,5-b]indole-4-carboxamide] | 232 to 233
10 | CN1CCN(C(=O)c2nc(-c3ccccc3)nc3c2c2ccc(Cl)cc2n3C)CC1 [Compound 11, 7-chloro-9-methyl-4-[(4-methylpiperazin-1-yl)carbonyl]-2-phenyl-9H-pyrimido[4,5-b]indole] | 236 to 238
11 | Cn1c2cc(Cl)ccc2c2c(C(=O)N3CCCC3)nc(-c3ccncc3)nc21 [Compound 14, 7-chloro-9-methyl-2-pyridin-4-yl-4-(pyrrolidin-1-ylcarbonyl)-9H-pyrimido[4,5-b]indole] | 256 to 258
12 | CN(C)C(=O)c1nc(-c2cccnc2)nc2c1c1ccc(Cl)cc1n2C [Compound 16, 7-chloro-N,N,9-trimethyl-2-pyridin-3-yl-9H-pyrimido[4,5-b]indole-4-carboxamide] | 283 to 284
13 | CN(C)C(=O)c1nc(-c2cnccn2)nc2c1c1ccc(Cl)cc1n2C [Compound 18, 7-chloro-N,N,9-trimethyl-2-pyrazin-2-yl-9H-pyrimido[4,5-b]indole-4-carboxamide] | 272 to 273
14 | CN(C)C(=O)Cc1nc(-c2ccncc2)nc2c1c1ccc(Cl)cc1n2C [Compound 21, 2-(7-chloro-9-methyl-2-pyridin-4-yl-9H-pyrimido[4,5-b]indol-4-yl)-N,N-dimethylacetamide] | 231 to 232
15 | CN(C)C(=O)Cc1nc(-c2cccnc2)nc2c1c1ccc(Cl)cc1n2C [Compound 22, 2-(7-chloro-9-methyl-2-pyridin-3-yl-9H-pyrimido[4,5-b]indol-4-yl)-N,N-dimethylacetamide] | 248 to 251
16 | CN(C)C(=O)c1nc(-c2ccccc2)nc2[nH]c3ccccc3c12 [Compound 23, N,N-dimethyl-2-phenyl-9H-pyrimido[4,5-b]indole-4-carboxamide] | 218 to 219
17 | CCOC(=O)c1nc(-c2ccccc2)nc2c1c1ccc(Cl)cc1n2C [Compound 24, Ethyl 7-chloro-9-methyl-2-phenyl-9H-pyrimido[4,5-b]indole-4-carboxylate] | 139 to 140

Row | SMILES | melting point [°C]
18 | Cn1c2cc(Cl)ccc2c2c(C(=O)O)nc(-c3ccccc3)nc21 [Compound 26, 7-chloro-9-methyl-2-phenyl-9H-pyrimido[4,5-b]indole-4-carboxylic acid] | 208 to 209
19 | COc1ccc(-c2nc(C(=O)N(C)C)c3c4ccc(Cl)cc4n(C)c3n2)cn1 [Compound 28, 7-chloro-2-(6-methoxypyridin-3-yl)-N,N,9-trimethyl-9H-pyrimido[4,5-b]indole-4-carboxamide] | 267 to 268
20 | COc1cc(-c2nc(C(=O)N(C)C)c3c4ccc(Cl)cc4n(C)c3n2)ccn1 [Compound 30, 7-chloro-2-(2-methoxypyridin-4-yl)-N,N,9-trimethyl-9H-pyrimido[4,5-b]indole-4-carboxamide] | 278 to 279
21 | CN(C)C(=O)c1nc(C2CC2)nc2c1c1ccc(Cl)cc1n2C [Compound 32, 7-chloro-2-cyclopropyl-N,N,9-trimethyl-9H-pyrimido[4,5-b]indole-4-carboxamide] | 197 to 198
22 | Cc1nc(C(=O)N(C)C)c2c3ccc(Cl)cc3n(C)c2n1 [Compound 33, 7-chloro-N,N,2,9-tetramethyl-9H-pyrimido[4,5-b]indole-4-carboxamide] | 193 to 195
23 | CC(C)c1nc(C(=O)N(C)C)c2c3ccc(Cl)cc3n(C)c2n1 [Compound 34, 7-chloro-2-isopropyl-N,N,9-trimethyl-9H-pyrimido[4,5-b]indole-4-carboxamide] | 125 to 126
24 | CN(C)C(=O)c1nc(C2CCOCC2)nc2c1c1ccc(Cl)cc1n2C [Compound 35, 7-chloro-N,N,9-trimethyl-2-(tetrahydro-2H-pyran-4-yl)-9H-pyrimido[4,5-b]indole-4-carboxamide] | 174.5 to 175.5
25 | CN(C)C(=O)c1nc(-c2ccc(Cl)nc2)nc2c1c1ccc(Cl)cc1n2C [Compound 37, 7-chloro-2-(6-chloropyridin-3-yl)-N,N,9-trimethyl-9H-pyrimido[4,5-b]indole-4-carboxamide] | 275 to 276
26 | CCOc1ccc(-c2nc(C(=O)N(C)C)c3c4ccc(Cl)cc4n(C)c3n2)cn1 [Compound 39, 7-chloro-2-(6-ethoxypyridin-3-yl)-N,N,9-trimethyl-9H-pyrimido[4,5-b]indole-4-carboxamide] | 237 to 239
27 | CCc1ccc(-c2nc(C(=O)N(C)C)c3c4ccc(Cl)cc4n(C)c3n2)cn1 [Compound 40, 7-chloro-2-(6-ethylpyridin-3-yl)-N,N,9-trimethyl-9H-pyrimido[4,5-b]indole-4-carboxamide] | 232 to 235
28 | CCc1cncc(-c2nc(C(=O)N(C)C)c3c4ccc(Cl)cc4n(C)c3n2)c1 [Compound 41, 7-chloro-2-(5-ethylpyridin-3-yl)-N,N,9-trimethyl-9H-pyrimido[4,5-b]indole-4-carboxamide] | 218 to 219
29 | Cc1cncc(-c2nc(C(=O)N(C)C)c3c4ccc(Cl)cc4n(C)c3n2)c1 [Compound 42, 7-chloro-N,N,9-trimethyl-2-(5-methylpyridin-3-yl)-9H-pyrimido[4,5-b]indole-4-carboxamide] | 313 to 314
30 | CN(C)C(=O)c1nc(-c2cncnc2)nc2c1c1ccc(Cl)cc1n2C [Compound 43, 7-chloro-N,N,9-trimethyl-2-pyrimidin-5-yl-9H-pyrimido[4,5-b]indole-4-carboxamide] | 322 to 325
31 | COc1cncc(-c2nc(C(=O)N(C)C)c3c4ccc(Cl)cc4n(C)c3n2)c1 [Compound 44, 7-chloro-2-(5-methoxypyridin-3-yl)-N,N,9-trimethyl-9H-pyrimido[4,5-b]indole-4-carboxamide] | 258 to 260
32 | COCc1ccc(-c2nc(C(=O)N(C)C)c3c4ccc(Cl)cc4n(C)c3n2)cn1 [Compound 45, 7-chloro-2-[6-(methoxymethyl)pyridin-3-yl]-N,N,9-trimethyl-9H-pyrimido[4,5-b]indole-4-carboxamide] | 239 to 241
33 | Cc1nc(-c2nc(C(=O)N(C)C)c3c4ccc(Cl)cc4n(C)c3n2)cs1 [Compound 46, 7-chloro-N,N,9-trimethyl-2-(2-methyl-1,3-thiazol-4-yl)-9H-pyrimido[4,5-b]indole-4-carboxamide] | 256 to 258

target: T1, peripheral benzodiazepine receptors (p or PBR sites) (Rattus norvegicus, UniProt P16257); experiment: Binding of [3H]Ro5-4864 to peripheral benzodiazepine receptors in rat kidney membranes; details: [3H]Ro5-4864 0.5 nM, 3 h at 0° C., read-out: IC50, concentration which inhibits 50% of the specific binding of [3H]Ro5-4864
T1 construct: After decapitation, the kidney was removed and the tissue was homogenized; from tissue; host or cells: kidney membrane homogenate of male Sprague Dawley rats

Row | SMILES | IC50 [nM]
34 | CN(C)C(=O)c1nc(-c2ccccc2)nc2c1c1ccc(Cl)cc1n2C [Compound 2, 7-chloro-N,N,9-trimethyl-2-phenyl-9H-pyrimido[4,5-b]indole-4-carboxamide] | 2.2
35 | CN(C)C(=O)c1nc(-c2ccncc2)nc2c1c1ccc(Cl)cc1n2C [Compound 15, 7-chloro-N,N,9-trimethyl-2-pyridin-4-yl-9H-pyrimido[4,5-b]indole-4-carboxamide] | 3.1
36 | CN(C)C(=O)Cc1nc(-c2ccccc2)nc2c1c1ccc(Cl)cc1n2C [Compound 19, 2-(7-chloro-9-methyl-2-phenyl-9H-pyrimido[4,5-b]indol-4-yl)-N,N-dimethylacetamide] | 1.3

test system: motor neurons of the facial nucleus; experiment: Survival of the motor neurons after sectioning the facial nerve in rats aged 4 days; format: in vivo, rat; details: via oral route, at 10 mg/kg; treated for 7 days; facial nerve lesion in 4 day old rats
Experimental: Test of Survival of the Motor Neurons after Sectioning the Facial Nerve in Rats Aged 4 Days
After lesion of the facial nerve in immature rats, the motor neurons of the facial nucleus underwent neuronal death by apoptosis. Neural survival was evaluated using histological methods and neuronal counting.
4 day old immature rats were anesthetized with pentobarbital (3 mg/kg by the i.p. route). The right facial nerve was exposed and sectioned, at its outlet from the stylomastoid foramen. After waking up, the young rats were returned to their mothers and treated for 7 days with one or two daily administrations, via oral or intraperitoneal route, at doses ranging from 1 to 10 mg/kg.
7 days after the lesion, the animals were decapitated and the brains frozen in isopentane at −40° C. The entire facial […] was cut with a cryostat into 10 μm sections. The motor neurons were colored with cresyl violet and counted using the Histo™ software (Biocom™).

Row | SMILES | % increase of neuronal survival
37 | CN(C)C(=O)c1nc(-c2ccccc2)nc2c1c1ccc(Cl)cc1n2C [Compound 2, 7-chloro-N,N,9-trimethyl-2-phenyl-9H-pyrimido[4,5-b]indole-4-carboxamide] | +25* %
38 | CN(C)C(=O)c1nc(-c2ccncc2)nc2c1c1ccc(Cl)cc1n2C [Compound 15, 7-chloro-N,N,9-trimethyl-2-pyridin-4-yl-9H-pyrimido[4,5-b]indole-4-carboxamide] | +40* %
39 | CN(C)C(=O)Cc1nc(-c2ccccc2)nc2c1c1ccc(Cl)cc1n2C [Compound 19, 2-(7-chloro-9-methyl-2-phenyl-9H-pyrimido[4,5-b]indol-4-yl)-N,N-dimethylacetamide] | +21* %
